Experimental findings from patent US10774054B2, “FXR (NR1H4) modulating compounds” (Gilead Sciences, Inc., priority 2016, dated 2020) are described below.

SMILES strings stand for the structures.

The nature of data set [1]: Drug concentration in plasma of Cynomolgus monkey after oral dosing. It counts as in vivo. As to conditions: 300 mg/kg. The text has this:
Each dosing group consisted of three male Cynomolgus monkeys.

The nature of data set [2]: Metabolite ID assay in human liver microsomes. It counts as in vitro ADME. Conditions: human liver microsomes 1 mg/mL, 1 mM NADPH, 5 μM substrate, 0, 30, 60 minutes. On the procedure: The metabolic stability of Example 3 and Comparative Example 1 in human liver microsmoes was conducted according to the following procedure. Human liver microsomes (35 μL protein concentration 20 mg/mL), 350 μL of 100 mM potassium phosphate buffer (pH 7.4), 245 μL of deionized water and 0.7 μL of compound stock solution (5 mM) were combined in a 1.5 mL microcentrifuge tube. The tube was sealed and gently vortexed for 10 seconds, then placed in an Eppendorf ThermoMixer C and pre-warmed at 37° C. with shaking at 1100 rpm for 5 minutes.
NADPH solution (70 μL; 10 mM in water) was added while shaking, the mixture was aspirated several times with pipet, and 200 μL was removed to a fresh 1.5 mL microcentrifuge tube on ice containing 200 μL of cold acetonitrile. […]
The chilled aliquots were centrifuged at 14,300 rpm in a microcentrifuge for 10 minutes at 10° C., then the supernatant was transferred to a deepwell (1 mL) 96 well plate and sealed with a silicon mat. […] 20 μL samples were analyzed by UPLC-MS in order to identify and quantify the metabolites (Agilent 1290 G4220 binary pump UPLC with Agilent G1316 TCC column oven; Waters Acquity UPLC BEH C18 (130 Å pore size, 1.7 μm particle size, 2.1×50 mm) column held at 40° C.; Agilent 1290 G4212 DAD diode array with wavelength range 190 to 400 nm; Thermo Electron Orbitrap Elite mass spectrometer in FTMS positive mode). […]

With `O=C(O)c1cnc(N2CC(O)(c3ccc(OCc4c(-c5c(Cl)cc(F)cc5Cl)noc4C4CC4)cc3Cl)C2)c(F)c1` [Example 3, 6-(3-(2-chloro-4-((5-cyclopropyl-3-(2,6-dichloro-4-fluorophenyl)isoxazol-4-yl)methoxy)phenyl)-3-hydroxyazetidin-1-yl)-5-fluoronicotinic acid], the “maximal plasma AUC of the two compounds compared” value in data set [1] is given as “comparable”.

With `O=C(O)c1cnc(N2CC(O)(c3ccc(OCc4c(-c5c(Cl)cccc5Cl)noc4C4CC4)cc3Cl)C2)c(F)c1` [Comparative Example 1], in data set [2], the “formation of diol metabolite M1” value is reported as “metabolized to a diol compound (M1)”.
